Measurements reported in US4238507A, “Pharmacological compound with immunopotentiating activity and production and uses thereof” (Zaidan Hojin Biseibutsu Kagaku Kenkyu Kai, priority 1979, dated 1980).

How the values were obtained:
alkaline phosphatase = settings: literature; cited from earlier work
[1] = stability compared with forphenicine; format: physicochemical; settings: relative to forphenicine
immune response = experiment: immunopotentiating activity upon oral administration compared with forphenicine; format: in vivo; settings: relative to forphenicine
[2] = acute toxicity (LD50), intraperitoneal injection in mice; settings: mouse, in vivo, ip; intraperitoneally injected into mice
[3] = system: cellular immunity (cell-mediated immunity); experiment: Delayed-Type Hypersensitivity (D.T.H.) footpad swelling, effect on cellular immunity in mice immunized with sheep red blood cells; format: in vivo, ddY mouse; settings: for Degree of swelling: left hind footpad, 24 hours after elicitation
Experimental: In order to evaluate the immunopotentiating properties of the compound (I) of this invention, the effect of the compound (I) on cellular immunity (cell-mediated immunity) was tested according to a known Delayed-Type Hypersensitivity (D.T.H.) technique (see P. H. Lagrange, G. B. Mackaness and T. E. Mille, "J. Exp. Med", 139, 1529-1539 (1974)) using mice immunized with sheep red blood cells as antigen.
Thus, 10^8 sheep red blood cells (SRBC) suspended in 0.05 ml of physiological saline were subcutaneously injected at the time of immunization to the right hind footpad of each dd/.UPSILON. mouse under test (female, 6 weeks old) to establish delayed-type hypersensitivity. Simultaneously with the immunization, a varying dose of the compound (I) was intraperitoneally injected or orally administered into each test mouse. Four days later, 10^8 sheep red blood cells were subcutantaneously injected into the left hind footpad of each test mouse for elicitation of the D.T.H. response. 24 hours after the elicitating injection, the thickness of the left hind footpad was measured to evaluate the degree of the swelling in the footpad. The degree of the swelling serves to estimate the cellular immunity involved. In the Table, the swelling degree is expressed in terms of the values calculated by the equation: [formula]

SMILES	inhibition of alkaline phosphatase (alkaline phosphatase)	stability [1]	activity upon oral administration (immune response)	LD50 [2] [mg/kg]	Degree of swelling ([3]; i.p. injection, 0.1 μg/mouse)	Degree of swelling ([3]; i.p. injection, 1 μg/mouse)	Degree of swelling ([3]; i.p. injection, 10 μg/mouse)	Degree of swelling ([3]; i.p. injection, 100 μg/mouse)	potentiating effect on establishment of cellular immunity ([3]; intraperitoneal injection or oral administration, wide range of dosages)	Degree of swelling ([3]; oral administration, 0.1 μg/mouse)	Degree of swelling ([3]; oral administration, 1 μg/mouse)	Degree of swelling ([3]; oral administration, 10 μg/mouse)	Degree of swelling ([3]; oral administration, 100 μg/mouse)
NC(C(=O)O)c1ccc(C=O)c(O)c1 (stereo not shown) [Forphenicine, forphenicine]	strong inhibitor of alkaline phosphatase	–	–	–	–	–	–	–	–	–	–	–	–
NC(C(=O)O)c1ccc(CO)c(O)c1 (stereo not shown) [compound (I), forphenicinol]	–	more stable than forphenicine	higher activity than forphenicine	> 500	183	159	148	131	intensive potentiating effect	139	133	191	166
